Experimental data taken from US11639929B2, “Universal histidine-tag binding compounds and methods of use thereof as fluorescent probes and sensors” (YEDA RESEARCH AND DEVELOPMENT CO. LTD., priority 2014, dated 2023).

Assays:
His-Bcl-2 = target: T1, His-Bcl-2 (Homo sapiens, UniProt P10415); assay: Probing protein-protein interactions for Bcl-2 with the His-Bcl-2-5 complex; assay type: binding; settings: complex 200 nM
T1 construct: purchased ProSpec-Tany TechnoGene Ltd. (Ness Ziona, Israel)
Protocol: Compounds 1-5 (50 μL, 10 μM) in phosphate buffer (4.1 mM, pH=7.3) were dispensed into a 384-well plate and fluorescence intensities were recorded with an excitation wavelength of 330 nm. His-Bcl-2 (final concentration, 200 nM) and Bax BH3 (final concentration, 1.6 μM) were subsequently added to each well and the fluorescence intensity values were recorded again. The emission values correspond to the maximal intensities recorded either at λem=530 nm or at λem=560 nm. Fluorescence was measured in triplicate. Data shown in FIG. 27 is the average of the triplicates and error bars represent standard deviation. Control experiments were performed in a similar manner (FIG. 28).
A mixture of compound 5 (200 nM) and His-Bcl-2 (200 nM) in PBS buffer (4.1 mM, pH=7.3) was dispensed into a 384-well microplate, and the fluorescence emission spectra were recorded. Various proteins (0.8 μM) and Bax BH3 peptide (0.8 μM) were added and the fluorescence emission was again recorded. Fluorescence measurements were performed in triplicate. The emission intensities before the addition of each protein were normalized to 100% (FIG. 27b).

His-CaM(Ca^+2) [1] = target: T2, His-CaM(Ca^+2) (Mus musculus, UniProt P0DP26); assay: Surface plasmon resonance on immobilized His-CaM with Ca2+; assay type: binding; settings: SPR, Table 2, CaCl2 0.3 mM; read-out: Dissociation constant
T2 construct: purchased Israel Structural Proteomics Center (Weizmann Institute of Science)
Protocol: SPR experiments were performed to assess the dissociation constant between His-CaM and the compound 1 in the presence/absence of Ca^2+ ions and other ligands. His-CaM was diluted in 180 μL PBS buffer (4.1 mM, pH=7.3) and 20 μL sodium acetate (1 M, pH=3) to reach a final concentration of 20 μg/mL and then immobilized on a Biacore sensor chip CM5 through EDC/NHS chemistry. Flow cells were activated for 5 min by injecting 50 μL mixture of 50 mM NHS:200 mM EDC. Then 50 μL of His-CaM (20 μg/mL) was injected at a rate of 10 μL/min followed by injection of ethanolamine (1 M) to block the remaining surface-activated groups. Various analytes (Table 1) were injected in different concentrations, ranging from 0.1-2 μM for (20 μL/min, 80 μL injection with a delay of 180 s wash) (Table 1). Between consecutive analyte injections, the surface was regenerated with 2 mM NaOH (20 μL at 10 μL/min) followed by PBS buffer (60 μL at 10 μL/min). Non-derivatized dextran matrix flow cells served as reference cells. […] CaCl2 (0.3 mM) was pre-incubated with the analyte before injections. For the control compound C15 (entry 5), prior to each injection, the chip was washed with 20 μL EDTA (50 mM, 20 μL/min) followed by PBS buffer (20 μL at 20 μL/min) to remove any traces of Ni^2+. The data were globally fitted using BiaEvaluation software 3.2.

[2] = test system: E. coli expressing His-OmpC; assay: Decorating bacteria with oligonucleotides, fluorescence microscopy; assay type: cell-based; settings: 500 nM with Ni(II)
Protocol: Transformed bacteria with the different OmpC constructs (OmpC or His-OmpC) were cultured to saturation in LB medium supplemented with 100 μg/ml of ampicillin at 30° C. 40 μl of the pre-cultured cells were then diluted into 4 ml of fresh LB medium supplemented with ampicillin and incubated until the OD600 reaches ˜0.6. Protein expression was then induced by the addition of 0.1% Rhamnose and 20 μM isopropyl-b-D-1-thiogalactopyranoside (IPTG) and cultures were allowed to grow at 30° C. for 18 h.
The bacterial cells (OmpC or His-OmpC) were collected by centrifugation at 6000 g for 4 min. The pellet was washed twice with PBS×1 buffer and resuspended in the same buffer to an OD600 of 0.3. To a 100 μl sample of the bacteria suspension, a preincubated sample of DNA (500 nM) and NiCl2 (2.5 μM) was added, and the cells were incubated at room temperature for 1 h. Then the bacterial sample were washed twice with PBS, resuspended in 100 μl PBS and placed on a glass-bottom dish (P35G-1.5-14-C; MatTek) precoated with poly-1-lysine (Sigma Aldrich) and left to adhere for 1 h. Finally, the wells were washed vigorously with PBS three times and imaged using an Olympus IX51 fluorescent microscope. The samples were imaged using 60× or 100× objective lenses. […]

His-CaM(Ca^+2) [3] = target: T2, His-CaM(Ca^+2); assay: Screening assay with small molecules and peptide inhibitors using the His-CaM(Ca+2)-1 complex; settings: test substance 1.6 μM; decrease indicates binding to the CaM surface
Protocol: A mixture of compound 1 (200 nM), His-CaM (400 nM), and CaCl2 (0.3 mM) in PBS buffer (4.1 mM, pH=7.3) was dispensed into a 384-well microplate, and fluorescence emission spectra were recorded. Then various drugs (1.6 μM) and peptides (1.6 μM) were added and the fluorescence emission was again recorded. Fluorescence measurements were performed in triplicate and the emission intensities before the addition of each drug were normalized to 100% (FIG. 24).

T1 sequence (P10415 whole entry): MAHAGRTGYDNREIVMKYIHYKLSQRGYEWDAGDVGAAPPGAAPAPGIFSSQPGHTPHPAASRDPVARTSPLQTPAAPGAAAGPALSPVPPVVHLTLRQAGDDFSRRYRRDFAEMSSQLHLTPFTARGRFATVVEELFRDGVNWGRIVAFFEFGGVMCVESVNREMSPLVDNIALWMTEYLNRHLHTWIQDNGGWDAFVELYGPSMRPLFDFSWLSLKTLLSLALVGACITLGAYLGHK

| Compound | emission signal of the His-Bcl-2-5 complex after addition of protein or peptide (His-Bcl-2) | Kd (His-CaM(Ca^+2) [1]) | fluorescent labeling of bacteria, fluorescence imaging [2] | fluorescence emission of the His-CaM(Ca+2)-1 complex after addition of drug or peptide (His-CaM(Ca^+2) [3]) |
| --- | --- | --- | --- | --- |
| Cy5-labeled ODN: Cy5-labeled ODN lacking a tri-NTA group, negative control (DNA GCGGCGAGGCAGC; Cy5 label, position not given here) | – | – | No fluorescence | – |
| Clc1ccc(C(c2ccc(Cl)cc2)n2cc[n+](CC(OCc3ccc(Cl)cc3Cl)c3ccc(Cl)cc3Cl)c2)cc1 (stereo not shown) [calmidazolium] | – | – | – | decrease in the fluorescence emission |
| Mastoparan | did not change the emission signal | – | – | decrease in the fluorescence emission |

Second part, led by results:

| emission signal of the His-Bcl-2-5 complex after addition of protein or peptide (His-Bcl-2) | Kd (His-CaM(Ca^+2) [1]) | Compound | fluorescent labeling of bacteria, fluorescence imaging [2] | fluorescence emission of the His-CaM(Ca+2)-1 complex after addition of drug or peptide (His-CaM(Ca^+2) [3]) |
| --- | --- | --- | --- | --- |
| did not change the emission signal | 8.8 nM | CC[C@H](C)[C@H](NC(=O)[C@H](Cc1ccccc1)NC(=O)[C@H](CC(N)=O)NC(=O)[C@H](CCCCN)NC(=O)[C@H](CCCCN)NC(=O)[C@H](Cc1c[nH]c2ccccc12)NC(=O)[C@H](CCCNC(=N)N)NC(=O)[C@H](CCCNC(=N)N)NC(=O)[C@@H](N)CCCCN)C(=O)N[C@@H](C)C(=O)N[C@H](C(=O)N[C@@H](CO)C(=O)N[C@@H](C)C(=O)N[C@@H](C)C(=O)N[C@@H](CC(N)=O)C(=O)N[C@@H](CCCNC(=N)N)C(=O)N[C@@H](Cc1ccccc1)C(=O)N[C@@H](CCCCN)C(=O)N[C@@H](CCCCN)C(=O)N[C@H](C(=O)N[C@@H](CO)C(=O)N[C@@H](CO)C(=O)N[C@@H](CO)C(=O)NCC(=O)N[C@@H](C)C(=O)N[C@@H](CC(C)C)C(=O)O)[C@@H](C)CC)C(C)C [Compound M13] | – | – |
| decreased | – | Bax-BH3: amphipathic alpha helical peptide of Bax, Bax BH3 peptide (55-74) wild type (STKKLSECLKRIGDELDSNM) | – | – |
